Where a name gives a salt, the structure may show the parent alone.
Columns and labels:
human and animal plasma = assay: Determination of anticoagulatory activity: activated partial thromboplastin time (aPTT) in plasma; type: biochemical; details: C.K. Prest kit, 37° C., 3 minutes incubation, plasma species of Table B not stated
Experimental: The anticoagulatory activity of the test substances is determined in vitro in human and animal plasma (for example mouse, rat, rabbit, pig and dog plasma). To this end, blood is drawn off in a mixing ratio of sodium citrate/blood of 1:9 using a 0.11 molar sodium citrate solution as receiver. Immediately after the blood has been drawn off, it is mixed thoroughly and centrifuged at about 4000 g for 15 minutes. The supernatant is pipetted off.
The activated partial thromboplastin time (aPTT) is determined in the presence of varying concentrations of test substance or the corresponding solvent using a commercial test kit (C.K. Prest from Diagnostica Stago). The test compounds are incubated with the plasma and the PTT reagent (cephalin, kaolin) at 37° C. for 3 minutes. Coagulation is then started by addition of a 25 mM aqueous calcium chloride solution, and the time when coagulation occurs is determined. The concentration of test substance which brings about a 1.5-fold extension of the aPTT is determined Activity data from this test are listed in Table B below: […]

human factor XIa = target: T1, human factor XIa (Homo sapiens, UniProt P03951); assay: Measurement of FXIa inhibition (fluorogenic peptide substrate Boc-Glu(OBzl)-Ala-Arg-AMC); type: biochemical; details: factor XIa from Kordia 0.45 nM; 15 min preincubation; 30 min at 22° C.
T1 construct: purchased Kordia
Experimental: The factor XIa inhibition of the substances according to the invention is determined using a biochemical test system which utilizes the reaction of a peptidic factor XIa substrate to determine the enzymatic activity of human factor XIa. Here, factor XIa cleaves from the peptic factor XIa substrate the C-terminal aminomethylcoumarin (AMC), the fluorescence of which is measured. The determinations are carried out in microtitre plates.
Test substances are dissolved in dimethyl sulphoxide and serially diluted in dimethyl sulphoxide (3000 μM to 0.0078 μM; resulting final concentrations in the test: 50 μM to 0.00013 μM). In each case 1 μl of the diluted substance solutions is placed into the wells of white microtitre plates from Greiner (384 wells). Subsequently, the following are added successively: 20 μl of assay buffer (50 mmol/l Tris buffer pH 7.4; 100 mmol/l sodium chloride; 5 mmol/l calcium chloride; 0.1% bovine serum albumin) and 20 μl of factor XIa from Kordia (0.45 nM in assay buffer). After 15 min of incubation, the enzyme reaction is started by addition of 20 μl of the factor XIa substrate Boc-Glu(OBzl)-Ala-Arg-AMC dissolved in assay buffer (10 μM in assay buffer) from Bachem, the mixture is incubated at room temperature (22° C.) for 30 min and fluorescence is then measured (excitation: 360 nm, emission: 460 nm). The measured emissions of the test batches with test substance are compared to those of control batches without test substance (only dimethyl sulphoxide instead of test substance in dimethyl sulphoxide), and IC50 values are calculated from the concentration/activity relationships.

T1 sequence (P03951 388-625 limits assumed): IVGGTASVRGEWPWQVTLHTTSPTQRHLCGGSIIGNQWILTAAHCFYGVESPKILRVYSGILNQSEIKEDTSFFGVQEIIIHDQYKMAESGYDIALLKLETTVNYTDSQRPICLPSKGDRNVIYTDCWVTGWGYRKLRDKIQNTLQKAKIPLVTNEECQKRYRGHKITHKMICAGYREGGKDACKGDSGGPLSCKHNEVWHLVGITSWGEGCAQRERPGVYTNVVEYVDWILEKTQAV
T1 sequence (P03951 19-387 partner limits assumed): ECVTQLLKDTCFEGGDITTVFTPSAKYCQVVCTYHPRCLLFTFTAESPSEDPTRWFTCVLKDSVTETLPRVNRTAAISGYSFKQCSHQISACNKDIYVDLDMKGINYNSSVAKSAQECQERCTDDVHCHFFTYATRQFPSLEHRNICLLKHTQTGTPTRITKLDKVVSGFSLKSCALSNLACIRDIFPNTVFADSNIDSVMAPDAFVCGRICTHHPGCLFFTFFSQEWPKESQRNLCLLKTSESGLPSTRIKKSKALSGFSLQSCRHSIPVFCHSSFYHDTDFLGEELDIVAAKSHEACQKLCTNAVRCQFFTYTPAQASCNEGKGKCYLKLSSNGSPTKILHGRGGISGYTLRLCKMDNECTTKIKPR

Row | Compound | aPTT (concentration of test substance which brings about a 1.5-fold extension of the aPTT) (human and animal plasma) [µmol/L] | IC50 (human factor XIa) [nM]
1 | Cc1ccc(-c2ccc(C[C@H](NC(=O)[C@H]3CC[C@H](CN)CC3)C(=O)Nc3ccc(-c4nn[nH]n4)cc3)cc2)cc1NC(=O)C1CCOCC1 [Example 29, N-{4′-[(2S)-2-({[trans-4-(Aminomethyl)cyclohexyl]carbonyl}amino)-3-oxo-3-{[4-(2H-tetrazol-5-yl)phenyl]amino}propyl]-4-methylbiphenyl-3-yl}tetrahydro-2H-pyran-4-carboxamide hydrochloride] | 0.3 | 11
2 | Cc1c(F)cc(C(=O)NC(C)C)cc1-c1ccc(C[C@H](NC(=O)[C@H]2CC[C@H](CN)CC2)C(=O)Nc2ccc(-c3nn[nH]n3)cc2)cc1 [Example 30, 4′-[(2S)-2-({[trans-4-(Aminomethyl)cyclohexyl]carbonyl}amino)-3-oxo-3-{[4-(2H-tetrazol-5-yl)phenyl]amino}propyl]-5-fluoro-N-isopropyl-6-methylbiphenyl-3-carboxamide hydrochloride] | 0.2 | 2.7
3 | Cc1c(F)cc(C(=O)NC2CCNCC2)cc1-c1ccc(C[C@H](NC(=O)[C@H]2CC[C@H](CN)CC2)C(=O)Nc2ccc(-c3nn[nH]n3)cc2)cc1 [Example 31, 4′-[(2S)-2-({[trans-4-(Aminomethyl)cyclohexyl]carbonyl}amino)-3-oxo-3-{[4-(2H-tetrazol-5-yl)phenyl]amino}propyl]-5-fluoro-6-methyl-N-(piperidin-4-yl)biphenyl-3-carboxamide hydrochloride] | 0.16 | 4.5
4 | Cc1ccc(C(=O)N[C@H]2CC[C@H](O)CC2)cc1-c1ccc(C[C@H](NC(=O)[C@H]2CC[C@H](CN)CC2)C(=O)Nc2ccc(-c3nn[nH]n3)cc2)cc1 [Example 32, 4′-[(2S)-2-({[trans-4-(Aminomethyl)cyclohexyl]carbonyl}amino)-3-oxo-3-{[4-(2H-tetrazol-5-yl)phenyl]amino}propyl]-N-(trans-4-hydroxycyclohexyl)-6-methylbiphenyl-3-carboxamide hydrochloride] | 0.15 | 4.7
5 | Cc1ccc(C(=O)N2CCOCC2)cc1-c1ccc(C[C@H](NC(=O)[C@H]2CC[C@H](CN)CC2)C(=O)Nc2ccc(-c3nn[nH]n3)cc2)cc1 [Example 33, trans-4-(Aminomethyl)-N-[(2S)-3-[2′-methyl-5′-(morpholin-4-ylcarbonyl)biphenyl-4-yl]-1-oxo-1-{[4-(2H-tetrazol-5-yl)phenyl]amino}propan-2-yl]cyclohexanecarboxamide hydrochloride] | 0.18 | 5.4
6 | Cc1cc(C(=O)NC2CCN(C)CC2)cc(-c2ccc(C[C@H](NC(=O)[C@H]3CC[C@H](CN)CC3)C(=O)Nc3ccc(-c4nn[nH]n4)cc3)cc2)c1C [Example 34, 4′-[(2S)-2-({[trans-4-(Aminomethyl)cyclohexyl]carbonyl}amino)-3-oxo-3-{[4-(2H-tetrazol-5-yl)phenyl]amino}propyl]-5,6-dimethyl-N-(1-methylpiperidin-4-yl)biphenyl-3-carboxamide hydrochloride] | 0.06 | 4.1
7 | NC[C@H]1CC[C@H](C(=O)N[C@@H](Cc2ccc(-c3ccc(F)c(C(=O)NC4CCNCC4)c3)cc2)C(=O)Nc2ccc(-c3nn[nH]n3)cc2)CC1 [Example 35, 4′-[(2S)-2-({[trans-4-(Aminomethyl)cyclohexyl]carbonyl}amino)-3-oxo-3-{[4-(2H-tetrazol-5-yl)phenyl]amino}propyl]-4-fluoro-N-(piperidin-4-yl)biphenyl-3-carboxamide hydrochloride] | 0.2 | 10

From patent US20160237067A1, “SUBSTITUTED PHENYLALANINE DERIVATIVES” (BAYER PHARMA AKTIENGESELLSCHAFT, priority 2013, published 2016)
